# Reference: publication PMC3902948 (Nucleic Acids Research, 2013)
# Tests used:
# Conditions in all cases: read-out: In absence of RNA / KM; no RNA; 100 mM NaCl, 10 mM Tris pH 7.5, 2 mM MgCl2
# [1] = tested on: Prp43-Ntr1(51–110)
# [2] = tested on: Prp43-Ntr1(62–110)
# [3] = tested on: Prp43-Ntr1(51–99)
# [4] = tested on: Prp43-Ntr1(51–102)
# [5] = tested on: Prp43-Ntr1(59–110)
# [6] = tested on: Prp43(1–745)-Ntr1(51–110)
compound,measurement,setting,value
Nc1ncnc2c1ncn2[C@@H]1O[C@H](COP(=O)(O)OP(=O)(O)OP(=O)(O)O)[C@@H](O)[C@H]1O [ATP],Km,[1],39.5 ± 3.92 µM
same,Km,[2],10.6 ± 2.18 µM
same,Km,[3],10.7 ± 1.38 µM
same,Km,[4],17.5 ± 2.43 µM
same,Km,[5],8.77 ± 1.09 µM
same,Km,[6],28.3 ± 4.61 µM
